Experimental data as given in US11898187B2 (priority 2017, dated 2024).

Tested on: HiNGT, EcNGT, ApNGT and ApNGT^Q469A
Type: biochemical

Substance: WGNWS
- differential sequence preference in regard to N-glycosylation: which NGT modifies the sequence: for EcNGT but not for HiNGT
